ChEMBL document CHEMBL6182889, “Discovery of the first-in-class DOT1L PROTAC degrader” (Eur J Med Chem, 2025)
The source made the active and inactive calls. The calls are words filed in the database; no cut-off is given here.

Experiments:
[1] = target: T1, von Hippel-Lindau disease tumor suppressor/Histone-lysine N-methyltransferase, H3 lysine-79 specific (Homo sapiens, UniProt Q8TEK3+P40337); assay: PROTAC activity at VHL/DOT1L in mixed-lineage leukemia rearranged (MLL-r) human MV4-11 cells assessed as induction of DOTIL degradation by measuring fold change in DOT1L protein level at 3 uM incubated for 4 hrs by western blot analysis relative to control; type: cell-based
Target sequence in this assay (P40337 whole entry, looked up): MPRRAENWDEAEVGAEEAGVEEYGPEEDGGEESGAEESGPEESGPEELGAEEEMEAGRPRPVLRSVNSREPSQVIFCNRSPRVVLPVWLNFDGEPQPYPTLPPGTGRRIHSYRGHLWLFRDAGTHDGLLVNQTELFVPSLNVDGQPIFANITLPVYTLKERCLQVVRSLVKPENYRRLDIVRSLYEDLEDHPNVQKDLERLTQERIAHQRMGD
Target sequence in this assay (Q8TEK3 whole entry, looked up): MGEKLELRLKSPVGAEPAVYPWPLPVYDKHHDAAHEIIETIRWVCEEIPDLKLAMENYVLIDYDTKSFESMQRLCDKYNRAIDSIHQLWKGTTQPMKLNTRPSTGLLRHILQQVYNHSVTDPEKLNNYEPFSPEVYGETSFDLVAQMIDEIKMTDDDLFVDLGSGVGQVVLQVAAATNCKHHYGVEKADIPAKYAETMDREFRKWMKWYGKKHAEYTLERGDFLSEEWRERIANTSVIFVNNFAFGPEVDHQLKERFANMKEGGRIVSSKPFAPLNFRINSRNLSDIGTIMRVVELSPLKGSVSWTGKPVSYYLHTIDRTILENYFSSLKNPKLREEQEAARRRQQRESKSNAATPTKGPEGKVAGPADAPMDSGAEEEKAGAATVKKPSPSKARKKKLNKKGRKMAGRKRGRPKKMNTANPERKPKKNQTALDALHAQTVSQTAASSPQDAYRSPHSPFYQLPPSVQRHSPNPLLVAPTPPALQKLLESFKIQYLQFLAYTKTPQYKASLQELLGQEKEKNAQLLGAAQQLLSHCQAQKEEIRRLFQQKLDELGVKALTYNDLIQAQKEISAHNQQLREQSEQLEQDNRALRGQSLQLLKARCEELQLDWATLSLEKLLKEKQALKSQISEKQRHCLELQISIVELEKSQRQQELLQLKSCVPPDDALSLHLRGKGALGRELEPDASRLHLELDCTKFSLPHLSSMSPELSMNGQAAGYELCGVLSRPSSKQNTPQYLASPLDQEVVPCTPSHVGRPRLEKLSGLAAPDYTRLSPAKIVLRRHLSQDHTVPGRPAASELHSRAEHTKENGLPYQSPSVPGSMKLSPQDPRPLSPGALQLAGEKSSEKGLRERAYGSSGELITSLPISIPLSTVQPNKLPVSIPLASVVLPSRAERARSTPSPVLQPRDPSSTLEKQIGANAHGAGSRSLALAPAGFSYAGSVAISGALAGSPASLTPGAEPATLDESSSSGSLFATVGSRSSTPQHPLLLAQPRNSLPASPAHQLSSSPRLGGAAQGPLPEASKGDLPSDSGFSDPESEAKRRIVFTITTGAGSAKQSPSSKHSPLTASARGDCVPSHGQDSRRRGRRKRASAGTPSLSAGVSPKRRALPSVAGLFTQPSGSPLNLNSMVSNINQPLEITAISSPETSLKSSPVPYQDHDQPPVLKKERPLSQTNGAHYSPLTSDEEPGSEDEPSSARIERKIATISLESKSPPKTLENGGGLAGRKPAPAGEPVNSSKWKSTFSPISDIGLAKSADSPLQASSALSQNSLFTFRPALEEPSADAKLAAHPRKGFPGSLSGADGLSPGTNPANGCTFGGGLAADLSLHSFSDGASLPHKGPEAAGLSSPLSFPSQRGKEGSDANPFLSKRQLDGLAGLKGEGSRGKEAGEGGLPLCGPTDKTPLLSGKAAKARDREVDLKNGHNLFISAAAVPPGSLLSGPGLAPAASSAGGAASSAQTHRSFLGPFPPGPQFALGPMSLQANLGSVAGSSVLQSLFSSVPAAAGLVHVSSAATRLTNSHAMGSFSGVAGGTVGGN

[2] = system: MCF-10A; assay: Cytotoxicity against human MCF-10A cells assessed as inhibition of cell growth incubated for 7 days by CCK-8 assay; type: toxicity, cell-based; conditions: 168 h, time 7 day
[3] = system: MOLM-13; assay: Effect on DOT1L mRNA expression in mixed-lineage leukemia rearranged (MLL-r) human MOLM-13 cells at 3 uM incubated for 24 hrs by RT-qPCR analysis; type: functional, cell-based
[4] = target: T1, von Hippel-Lindau disease tumor suppressor/Histone-lysine N-methyltransferase, H3 lysine-79 specific; assay: PROTAC activity at VHL/DOT1L in mixed-lineage leukemia rearranged (MLL-r) human THP-1 cells assessed as induction of DOT1L degradation incubated for 24 hrs by western blot analysis; type: cell-based
[5] = target: T2, Histone-lysine N-methyltransferase EHMT1 (Homo sapiens) (UniProt Q9H9B1); assay: Inhibition of human GLP using Histone H3 and SAM as substrate at 10 uM by radiometric Hotspot assay
T2 sequence (whole entry): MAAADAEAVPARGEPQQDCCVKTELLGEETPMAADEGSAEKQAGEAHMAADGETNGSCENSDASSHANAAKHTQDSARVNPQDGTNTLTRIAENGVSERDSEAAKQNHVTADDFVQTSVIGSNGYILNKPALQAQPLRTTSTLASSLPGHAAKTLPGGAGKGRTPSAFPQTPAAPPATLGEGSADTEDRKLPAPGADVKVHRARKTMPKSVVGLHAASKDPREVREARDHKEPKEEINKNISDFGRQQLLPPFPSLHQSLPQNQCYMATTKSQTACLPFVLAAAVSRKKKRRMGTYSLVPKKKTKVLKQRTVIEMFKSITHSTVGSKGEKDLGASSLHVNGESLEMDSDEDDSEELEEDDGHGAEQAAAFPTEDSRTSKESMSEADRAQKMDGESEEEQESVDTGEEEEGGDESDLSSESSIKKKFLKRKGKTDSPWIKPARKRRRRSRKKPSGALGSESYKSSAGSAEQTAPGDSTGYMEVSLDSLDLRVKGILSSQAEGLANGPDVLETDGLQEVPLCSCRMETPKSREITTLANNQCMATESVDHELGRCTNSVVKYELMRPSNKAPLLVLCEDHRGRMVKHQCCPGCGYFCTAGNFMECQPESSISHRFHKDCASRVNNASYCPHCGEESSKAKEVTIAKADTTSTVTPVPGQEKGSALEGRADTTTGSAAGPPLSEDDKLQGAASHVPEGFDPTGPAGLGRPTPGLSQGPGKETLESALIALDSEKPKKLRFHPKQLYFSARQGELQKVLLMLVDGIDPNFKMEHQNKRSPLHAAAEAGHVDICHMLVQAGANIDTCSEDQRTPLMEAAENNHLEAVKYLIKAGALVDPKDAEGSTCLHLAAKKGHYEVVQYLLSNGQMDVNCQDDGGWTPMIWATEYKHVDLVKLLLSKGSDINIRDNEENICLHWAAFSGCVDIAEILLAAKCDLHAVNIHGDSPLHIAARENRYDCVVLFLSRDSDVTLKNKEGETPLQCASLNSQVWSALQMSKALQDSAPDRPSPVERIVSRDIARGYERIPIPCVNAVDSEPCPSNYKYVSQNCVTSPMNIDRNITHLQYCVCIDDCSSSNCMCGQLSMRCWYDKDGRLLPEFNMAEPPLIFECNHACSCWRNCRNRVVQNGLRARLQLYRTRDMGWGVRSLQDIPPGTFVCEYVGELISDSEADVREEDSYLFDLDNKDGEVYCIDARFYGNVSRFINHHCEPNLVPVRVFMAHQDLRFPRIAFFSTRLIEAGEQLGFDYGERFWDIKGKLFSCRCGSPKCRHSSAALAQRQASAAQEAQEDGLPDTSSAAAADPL

[6] = target: T1, von Hippel-Lindau disease tumor suppressor/Histone-lysine N-methyltransferase, H3 lysine-79 specific; assay: PROTAC activity at VHL/DOT1L in mixed-lineage leukemia rearranged (MLL-r) human THP-1 cells assessed as induction of DOTIL degradation by measuring fold change in H3K79Me2 level at 3 uM incubated for 1 hr by western blot analysis relative to control; type: cell-based
Target sequence in this assay (P40337 whole entry, looked up): as the sequence (P40337 whole entry, looked up) above
Target sequence in this assay (Q8TEK3 whole entry, looked up): as the sequence (Q8TEK3 whole entry, looked up) above

[7] = target: DNA (cytosine-5)-methyltransferase 3B (Homo sapiens) (UniProt Q9UBC3); assay: Inhibition of human full length DNMT3b using lambda DNA and SAM as substrate at 10 uM by radiometric Hotspot assay
[8] = target: T1, von Hippel-Lindau disease tumor suppressor/Histone-lysine N-methyltransferase, H3 lysine-79 specific; assay: PROTAC activity against VHL/DOT1L in mixed-lineage leukemia rearranged (MLL-r) human THP-1 cells assessed as induction of DOT1L degradation at 3 uM preincubated with proteasome inhibitor, MG-132 for 1 hr followed by incubation with compound for 4 hrs by western blot analysis; type: cell-based
Target sequence in this assay (P40337 whole entry, looked up): as the sequence (P40337 whole entry, looked up) above
Target sequence in this assay (Q8TEK3 whole entry, looked up): as the sequence (Q8TEK3 whole entry, looked up) above

[9] = target: T1, von Hippel-Lindau disease tumor suppressor/Histone-lysine N-methyltransferase, H3 lysine-79 specific; assay: PROTAC activity at VHL/DOTIL in mixed-lineage leukemia rearranged (MLL-r) human THP-1 cells assessed as induction of DOT1L degradation by measuring fold change in DOTIL protein level at 3 uM incubated for 24 hrs by western blot analysis relative to control; type: cell-based
Target sequence in this assay (P40337 whole entry, looked up): as the sequence (P40337 whole entry, looked up) above
Target sequence in this assay (Q8TEK3 whole entry, looked up): as the sequence (Q8TEK3 whole entry, looked up) above

[10] = target: T1, von Hippel-Lindau disease tumor suppressor/Histone-lysine N-methyltransferase, H3 lysine-79 specific; assay: PROTAC activity at VHL/DOT1L in mixed-lineage leukemia rearranged (MLL-r) human THP-1 cells assessed as induction of DOTIL degradation by measuring fold change in H3K79Me2 level at 3 uM incubated for 24 hrs by western blot analysis relative to control; type: cell-based
Target sequence in this assay (P40337 whole entry, looked up): as the sequence (P40337 whole entry, looked up) above
Target sequence in this assay (Q8TEK3 whole entry, looked up): as the sequence (Q8TEK3 whole entry, looked up) above

[11] = target: T1, von Hippel-Lindau disease tumor suppressor/Histone-lysine N-methyltransferase, H3 lysine-79 specific; assay: PROTAC activity at VHL/DOT1L in mixed-lineage leukemia rearranged (MLL-r) human MV4-11 cells assessed as induction of DOTIL degradation by measuring fold change in H3K79Me2 level at 3 uM incubated for 4 hrs by western blot analysis relative to control; type: cell-based
Target sequence in this assay (P40337 whole entry, looked up): as the sequence (P40337 whole entry, looked up) above
Target sequence in this assay (Q8TEK3 whole entry, looked up): as the sequence (Q8TEK3 whole entry, looked up) above

[12] = target: T1, von Hippel-Lindau disease tumor suppressor/Histone-lysine N-methyltransferase, H3 lysine-79 specific; assay: PROTAC activity at VHL/DOT1L in mixed-lineage leukemia rearranged (MLL-r) human MV4-11 cells assessed as induction of DOTIL degradation by measuring fold change in DOT1L protein level at 3 uM incubated for 24 hrs by western blot analysis relative to control; type: cell-based
[13] = target: T1, von Hippel-Lindau disease tumor suppressor/Histone-lysine N-methyltransferase, H3 lysine-79 specific; assay: PROTAC activity at VHL/DOT1L in mixed-lineage leukemia rearranged (MLL-r) human THP-1 cells assessed as induction of DOT1L degradation at 3 uM co-incubated with VHL ligand for 24 hrs by western blot analysis; type: cell-based
[14] = target: T1, von Hippel-Lindau disease tumor suppressor/Histone-lysine N-methyltransferase, H3 lysine-79 specific; assay: PROTAC activity at VHL/DOT1L in mixed-lineage leukemia rearranged (MLL-r) human MV4-11 cells assessed as induction of DOTIL degradation by measuring fold change in DOT1L protein level at 3 uM incubated for 1 hr by western blot analysis relative to control; type: cell-based
[15] = target: T1, von Hippel-Lindau disease tumor suppressor/Histone-lysine N-methyltransferase, H3 lysine-79 specific; assay: PROTAC activity at VHL/DOT1L in mixed-lineage leukemia rearranged (MLL-r) human MV4-11 cells assessed as induction of DOTIL degradation by measuring fold change in H3K79Me2 level at 3 uM incubated for 24 hrs by western blot analysis relative to control; type: cell-based
[16] = target: Protein arginine N-methyltransferase 6 (Homo sapiens) (UniProt Q96LA8); assay: Inhibition of PRMT6 (unknown origin) at 10 uM by radiometric methyltransferase assay
Chain of Protein arginine N-methyltransferase 6 (Homo sapiens) (Q96LA8 whole entry, looked up): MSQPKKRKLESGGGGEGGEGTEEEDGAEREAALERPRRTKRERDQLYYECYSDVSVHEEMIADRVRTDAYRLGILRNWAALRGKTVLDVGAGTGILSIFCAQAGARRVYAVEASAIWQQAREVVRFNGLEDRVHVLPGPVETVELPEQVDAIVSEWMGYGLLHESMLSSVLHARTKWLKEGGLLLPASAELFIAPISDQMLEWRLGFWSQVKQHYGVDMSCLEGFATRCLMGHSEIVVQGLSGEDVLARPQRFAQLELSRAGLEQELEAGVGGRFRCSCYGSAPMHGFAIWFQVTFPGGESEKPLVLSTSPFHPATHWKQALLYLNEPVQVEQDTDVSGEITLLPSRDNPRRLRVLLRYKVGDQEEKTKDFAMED

fold change (FC) [1]: 0.27
Activity [4]: Dose-dependent-effect
DC50 [4]: 56 nM
inhibition [5]: inactive
fold change (FC) [6]: 0.99
inhibition [7]: inactive
Activity [8]: inactive
fold change (FC) [9]: 0.08
fold change (FC) [10]: 0.29
fold change (FC) [11]: 0.32
fold change (FC) [12]: 0.07
Activity [13]: inactive
fold change (FC) [14]: 1.26
fold change (FC) [15]: 0.17
inhibition [16]: inactive
SMILES: Cc1ncsc1-c1ccc([C@H](CC(=O)NCCCCCCNC(=O)COc2nc(N)nc(Nc3cc(S(N)(=O)=O)ccc3N[C@@H](c3cccc4c3OC(F)(F)O4)c3ncccc3Cl)n2)NC(=O)[C@@H]2C[C@@H](O)CN2C(=O)[C@@H](NC(=O)C2(F)CC2)C(C)(C)C)cc1
Activity [2]: Non-toxic
Activity [3]: inactive
